Reference: patent US20250082651A1, “GANAXOLONE FOR USE IN TREATING GENETIC EPILEPTIC DISORDERS” (Marinus Pharmaceuticals, Inc., priority 2017, published 2025)
Where “and” joins values, the source holds several entries; their conditions need not be identical. Identical values can stand only once.

Tests used:
[1] = test system: subjects with focal onset seizure disorder; details: post hoc, subjects taking 3 or more concomitant AEDs, p=0.02; cited from earlier work
[2] = molecular target: human ether-a-go-go related gene (hERG) receptor (Homo sapiens, UniProt Q12809); test: hERG safety pharmacology; assay type: binding; details: measured concentration of 70 nM (n=2)
Experimental: Safety pharmacology studies were conducted with ganaxalone.

[3] = test system: cytochrome P450 (CYP) isoenzymes 1A1/2 and 2B1/2; test: CYP induction and auto-induction in animals; assay type: in vivo, rat
[4] = test system: children with Lennox-Gastaut Syndrome; test: Phase 2 open-label trial, LGS cohort, seizure efficacy; assay type: in vivo, human
From the text: Example 3 concerns a Phase 2 Multicenter, Open-Label Proof-of-Concept Trial of ganaxolone (GNX) in cohorts of children having genetic epilepsies (PCDH19, CDKL5 LGS, and CSWS) (ClinicalTrials.gov Identifier: NCT02358538). There were 11 female children with PCDH19 epilepsy between 5-16 years old with a confirmed genetic mutation. There were 6 female and 1 male children with confirmed genetic mutations in the CDKL5 cohort. There were 10 children in the Lennox Gastaut Syndrome cohort. Two children with CSWS were enrolled into the study. The study was conducted with 12 weeks baseline, and up to 26 weeks of treatment followed by a 52 week open label treatment. The primary efficacy was the percentage change in seizure frequency per 28 days relative to baseline calculated using daily seizure diary. [Time Frame: 26 weeks]. Secondary Outcome Measures were: Clinician Global Impression of Change score as assessed by questionnaire. [Time Frame: 26 Weeks]; Patient Global Impression of Change score as assessed by questionnaire. [Time Frame: 26 Weeks]; Evaluation of safety and tolerability of open-label ganaxolone as adjunctive therapy for uncontrolled seizures in children with rare genetic epilepsies, based on adverse event log and other clinical safety assessments. [Time Frame: 26 weeks]; Responder rates [Time Frame: 26 weeks]; and Seizure free days [Time Frame: 26 weeks].
Following screening and baseline evaluations, consenting patients enrolled into a 26-week study during which investigators were allowed to flexibly dose ganaxolone up to a dose of 1,800 mg/day for patients whose body weight was >30 kg, or up to 63 mg/kg/day for patients whose body-weight was <30 kg. The primary efficacy measure is % change from baseline in the 28-day seizure frequency count. Safety and tolerability were within the secondary objectives of the study.
In this study, oral ganaxolone suspension or capsules were administered up to a total of 63 mg/kg/day (maximum 1800 mg/day) over 2-4 weeks. About six-eight titration steps are used, depending on the size of the patient. Children larger than 30 kg may take the ganaxolone capsules. The ganaxolone oral suspension was administered through an oral dosing syringe three times daily. The ganaxolone capsules were administered twice daily. The patients experience better absorption of the ganaxolone with meals (milk).
After establishing baseline seizure frequency, qualifying subjects entered the study and were treated with open-label ganaxolone oral suspension or ganaxolone capsules at doses up to a maximum of 1800 mg/day for up to 6 months. Maximum study participation was 94 weeks: a screening period up to 12 weeks to establish baseline seizure frequency, up to 26 weeks of treatment, a 52 week extension for subjects who benefited from ganaxolone treatment, and up to 4 weeks of down titration period. […] Refractive cases of LGS or CSWS that had prior response to steroid or ACTH could also have been enrolled.
Ganaxolone oral suspension was administered through an oral dosing syringe by parent or legal guardian 3 times daily (TID), following the morning, noon, and evening meal or snack. Each dose was separated by a minimum of 4 hours and a maximum of 8 hours. A missed dose of ganaxolone could have been taken up to 4 hours before the next scheduled dose; otherwise, the missed dose was not to be given.
Ganaxolone capsules were administered with a glass of water or other liquid 2 times daily (BID), following the morning and evening meal or snack. Ganaxolone was provided as either an oral suspension or capsules based on the subject's weight at study entry. Ganaxolone oral suspension was administered through an oral dosing syringe TID by a parent or guardian, following the morning, midday, and evening meal or snack. Each dose was separated by a minimum of 4 hours and a maximum of 8 hours. Ganaxolone capsules were administered BID, following the morning and evening meal or snack. […]

Sequence of human ether-a-go-go related gene (hERG) receptor (Q12809 whole entry): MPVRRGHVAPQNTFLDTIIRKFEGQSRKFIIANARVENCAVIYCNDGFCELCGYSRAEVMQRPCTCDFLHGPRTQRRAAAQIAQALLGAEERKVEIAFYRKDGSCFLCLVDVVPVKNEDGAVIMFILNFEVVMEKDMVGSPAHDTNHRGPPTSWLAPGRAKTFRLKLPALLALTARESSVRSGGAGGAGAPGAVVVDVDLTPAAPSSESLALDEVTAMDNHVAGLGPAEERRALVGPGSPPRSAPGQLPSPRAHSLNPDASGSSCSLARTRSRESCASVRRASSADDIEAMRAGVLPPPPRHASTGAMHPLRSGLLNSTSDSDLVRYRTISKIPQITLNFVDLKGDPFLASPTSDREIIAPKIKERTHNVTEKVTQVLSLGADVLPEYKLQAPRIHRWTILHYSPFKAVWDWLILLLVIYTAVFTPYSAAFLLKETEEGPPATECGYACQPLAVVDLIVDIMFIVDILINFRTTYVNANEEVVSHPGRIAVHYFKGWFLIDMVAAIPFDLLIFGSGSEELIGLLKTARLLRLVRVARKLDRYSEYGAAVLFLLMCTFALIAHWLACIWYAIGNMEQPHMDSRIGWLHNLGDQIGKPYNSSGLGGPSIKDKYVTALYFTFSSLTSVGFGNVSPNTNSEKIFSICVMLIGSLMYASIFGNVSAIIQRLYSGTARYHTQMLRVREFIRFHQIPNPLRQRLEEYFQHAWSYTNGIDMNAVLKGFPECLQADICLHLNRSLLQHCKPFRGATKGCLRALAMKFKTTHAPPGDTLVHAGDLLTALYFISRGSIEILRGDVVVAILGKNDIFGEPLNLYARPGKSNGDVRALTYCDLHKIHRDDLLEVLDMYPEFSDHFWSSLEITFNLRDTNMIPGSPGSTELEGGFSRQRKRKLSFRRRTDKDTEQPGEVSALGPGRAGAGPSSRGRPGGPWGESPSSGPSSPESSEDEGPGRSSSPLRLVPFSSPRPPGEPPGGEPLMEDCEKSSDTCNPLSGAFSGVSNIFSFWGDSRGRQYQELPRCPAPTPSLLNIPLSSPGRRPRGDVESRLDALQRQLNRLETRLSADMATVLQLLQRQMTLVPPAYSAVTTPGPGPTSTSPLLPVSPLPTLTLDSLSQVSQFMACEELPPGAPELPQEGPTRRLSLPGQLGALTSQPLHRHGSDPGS

CC(=O)[C@H]1CC[C@H]2[C@@H]3CC[C@H]4C[C@](C)(O)CC[C@]4(C)[C@H]3CC[C@]12C [Ganaxolone, 3α-hydroxy-3β-methyl-5α-pregnan-20-one]
Greater reduction in median seizure frequency than placebo [1]: 20%
Interaction with hERG receptor [2]: did not interact
Auto-induction ([3]; dogs): no auto-induction
Induction of CYP isoenzymes 1A1/2 and 2B1/2 ([3]; female rats): induces
Induction of CYP isoenzymes 1A1/2 and 2B1/2 ([3]; male rats): not males
Auto-induction ([3]; mouse and rat): Auto-induction has also been observed
28-day seizure frequency, sum of individual seizures and clusters, post-baseline 26-week open-label period, Mean (SD) ([4]; LGS N=10, MITT): 263.66 (502.176)
28-day seizure frequency, sum of individual seizures and clusters, post-baseline 26-week open-label period, Median ([4]; LGS N=10, MITT): 65.08
28-day seizure frequency, sum of individual seizures and clusters, post-baseline through Month 3 (Day 91), Mean (SD) ([4]; LGS N=10, MITT): 263.91 (502.477)
28-day seizure frequency, sum of individual seizures and clusters, post-baseline through Month 3 (Day 91), Median ([4]; LGS N=10, MITT): 75.91
Percent change from baseline (at Day 91), 28-day seizure frequency, sum of individual seizures and clusters, Mean (SD) ([4]; LGS N=10, MITT): 122.10% and 122.10 (321.124) %
Percent change from baseline (at Week 26), 28-day seizure frequency, sum of individual seizures and clusters, Mean (SD) ([4]; LGS N=10, MITT): 125.38% and 125.38 (319.051) %
Percent change from baseline (at Week 26), 28-day seizure frequency, sum of individual seizures and clusters, Median ([4]; LGS N=10, MITT): −9.19%
Mean percent change in 28-day total seizure frequency from baseline to Week 26 ([4]; LGS cohort, PP Population): 18.43%
Median percent change in 28-day total seizure frequency from baseline to Week 26 ([4]; LGS cohort, PP Population): 11.15%
Clinical global impression of improvement: much improved ([4]; LGS cohort, end of Week 26): 1 subject
Clinical global impression of improvement: very much improved ([4]; LGS cohort, end of Week 26): 1 subject
Percent change from baseline (at Day 91), 28-day individual seizure frequency, Mean (SD) ([4]; LGS n=9, MITT): 226.72% and 226.72 (496.750) %
Percent change from baseline (at Day 91), 28-day individual seizure frequency, Median ([4]; LGS n=9, MITT): −9.56%
Percent change from baseline (at Week 26), 28-day individual seizure frequency, Mean (SD) ([4]; LGS n=9, MITT): 229.90% and 229.90 (494.164) %
Percent change from baseline (at Week 26), 28-day individual seizure frequency, Median ([4]; LGS n=9, MITT): 5.04%
28-day individual seizure frequency, post-baseline 26-Week open-label period, Mean (SD) ([4]; LGS n=10, MITT): 257.07 (503.453)
28-day individual seizure frequency, post-baseline 26-Week open-label period, Median ([4]; LGS n=10, MITT): 55.93
28-day individual seizure frequency, post-baseline through Month 3 (Day 91), Mean (SD) ([4]; LGS n=10, MITT): 256.48 (503.934)
28-day individual seizure frequency, post-baseline through Month 3 (Day 91), Median ([4]; LGS n=10, MITT): 64.71
